From article PMC2914574 (Journal of neurochemistry, 2010)
Where two headings read alike, the source gives them in different places. Marks after values point to notes of the source that are not given here.

Assays:
[1] = biological target: wild-type hDAT (Homo sapiens, UniProt Q01959); assay: displacement of intact-cell [3H]CFT binding, wild-type hDAT; conditions: for fold increase in binding affinity over monovalent DA: relative to dopamine; for Ki: inhibition of [3H]CFT binding, intact HEK-hDAT cells, 21°C, 15 min
[2] = biological target: T1, WT hDAT (Homo sapiens, UniProt Q01959); assay: inhibition of [3H]DA uptake in intact HEK-hDAT cells; format: cell-based; conditions: for Uptake Kapp, WT: inhibition of [3H]DA uptake, intact HEK-hDAT cells, 5 min; for Kapp / Ki ratio: uptake Kapp over binding Ki at WT hDAT
[3] = biological target: T1, WT hDAT; conditions: inhibition of [3H]DA uptake; ref Chen et al. (2004); cited from earlier work
[4] = biological target: T2, hDAT W84L mutant (Homo sapiens, UniProt Q01959, W84L); assay: displacement of intact-cell [3H]CFT binding, W84L mutant hDAT
T2 sequence (Q01959 1-620 W84L): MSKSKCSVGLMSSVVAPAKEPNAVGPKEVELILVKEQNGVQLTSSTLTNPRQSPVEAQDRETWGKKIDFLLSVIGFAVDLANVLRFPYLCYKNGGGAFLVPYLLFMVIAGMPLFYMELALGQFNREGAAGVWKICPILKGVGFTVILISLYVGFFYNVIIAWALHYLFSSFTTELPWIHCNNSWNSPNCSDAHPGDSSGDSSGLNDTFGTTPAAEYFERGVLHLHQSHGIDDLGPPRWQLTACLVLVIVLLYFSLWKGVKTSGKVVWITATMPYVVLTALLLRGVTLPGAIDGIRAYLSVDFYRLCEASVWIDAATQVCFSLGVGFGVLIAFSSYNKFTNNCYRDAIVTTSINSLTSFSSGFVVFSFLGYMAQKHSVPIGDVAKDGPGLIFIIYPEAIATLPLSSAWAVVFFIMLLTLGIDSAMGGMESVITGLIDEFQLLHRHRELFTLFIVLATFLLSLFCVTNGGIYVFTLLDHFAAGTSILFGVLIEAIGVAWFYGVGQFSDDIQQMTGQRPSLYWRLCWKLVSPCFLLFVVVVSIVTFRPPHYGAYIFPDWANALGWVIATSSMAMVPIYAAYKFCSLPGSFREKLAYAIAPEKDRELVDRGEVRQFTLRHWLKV

[5] = biological target: hDAT D313N mutant (Homo sapiens, UniProt Q01959, D313N); assay: displacement of intact-cell [3H]CFT binding, D313N mutant hDAT
Chain of hDAT D313N mutant (Q01959 whole entry D313N): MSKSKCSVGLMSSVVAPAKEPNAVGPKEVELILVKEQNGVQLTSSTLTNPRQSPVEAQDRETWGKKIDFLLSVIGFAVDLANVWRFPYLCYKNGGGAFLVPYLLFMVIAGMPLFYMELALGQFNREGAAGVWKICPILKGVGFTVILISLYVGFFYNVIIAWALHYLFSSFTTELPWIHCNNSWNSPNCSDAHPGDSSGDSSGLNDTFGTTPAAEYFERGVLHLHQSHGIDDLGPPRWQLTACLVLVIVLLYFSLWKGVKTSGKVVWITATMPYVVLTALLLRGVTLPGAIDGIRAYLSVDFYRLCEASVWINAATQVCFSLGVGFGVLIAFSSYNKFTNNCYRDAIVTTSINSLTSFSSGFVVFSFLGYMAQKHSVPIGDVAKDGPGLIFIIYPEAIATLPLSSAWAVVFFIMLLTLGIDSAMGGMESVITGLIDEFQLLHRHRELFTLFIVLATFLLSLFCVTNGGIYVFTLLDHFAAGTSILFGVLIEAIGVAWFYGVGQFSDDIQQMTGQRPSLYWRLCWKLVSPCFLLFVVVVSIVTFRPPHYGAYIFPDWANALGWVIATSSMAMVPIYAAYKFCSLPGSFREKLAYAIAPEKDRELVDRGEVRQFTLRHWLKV

Chain of wild-type hDAT (Q01959 whole entry): as the sequence (Q01959 whole entry D313N) above, with N313D counted along it
T1 sequence (Q01959 whole entry): as the sequence (Q01959 whole entry D313N) above, with N313D counted along it

| Molecule | fold increase in binding affinity over monovalent DA ([1]; [3H]CFT binding, WT hDAT) [fold] | Ki ([1]; read-out: hDAT Binding Ki, WT) [nM] | Uptake Kapp, WT [2] [nM] | further results |
| --- | --- | --- | --- | --- |
| Oc1ccc(CCNCCCCCCNCCc2ccc(O)c(O)c2)cc1O [Compound D-361] | 61 | 69.7 ± 9.54 | 134.9 ± 17.5 | – |
| CCCNC(C)Cc1ccccc1 (stereo not drawn) [(dl)-propylamphetamine, N-propylamphetamine, reference compound] | – | 988 ± 67.6 | 2497 ± 138 | Kapp / Ki ratio [2]: 1.8–2.5 |
| CC(Cc1ccccc1)NCCCNCCc1ccc(O)c(O)c1 [Compound D-309] | 13 | 322 ± 15.3 | 740.8 ± 30.1 | – |
| CC(Cc1ccccc1)NCCCCCCNCCc1ccccc1 [Compound D-370] | – | 97.8 ± 10 | 204.7 ± 9.75 | – |
| CC(Cc1ccccc1)NCCCCCCNCCc1ccc(O)c(O)c1 [Compound D-371] | 42 | 101 ± 13.4 | 244.5 ± 21.5 | fold increase in binding affinity compared to (d)-amphetamine ([1]; [3H]CFT binding, WT hDAT): 6 fold |
| CC(NC(C)(C)C)C(=O)c1cccc(Cl)c1 (stereo not shown) [bupropion, reference compound] | – | – | 576.5 ± 29.1 | – |
| CCCCCCNCCc1ccc(O)c(O)c1 [Compound D-363, N-hexyldopamine] | 2.5 | 1740 ± 191 | 3075 ± 223 | fold weaker binding than the bivalent D-361 ([1]; [3H]CFT binding, WT hDAT): 25 fold; fold loss of activity as inhibitor of [3H]DA uptake relative to dopamine ([2]; WT hDAT): > 7 fold; Kapp / Ki ratio [2]: 1.8–2.5 |
| COC(=O)[C@H]1[C@@H](c2ccc(F)cc2)C[C@@H]2CC[C@H]1N2C [β-CFT, 2β-carbomethoxy-3β-(4-fluorophenyl)-tropane] | – | – | – | Uptake Kapp, WT [3]: 30.0 ± 4.0 ^b nM |
| CN1[C@@H]2CC[C@H]1C[C@@H](OC(c1ccccc1)c1ccccc1)C2 [benztropine, reference compound] | – | – | 375.5 ± 6.35 | – |
| CN[C@@H](C)Cc1ccccc1 [(d)-methamphetamine, reference compound] | – | 341 ± 42.7 | 141.7 ± 18.8 | – |
| hydroxydopentamine [Compound D-310] | – | 91.4 ± 12.5 | 155.3 ± 18.6 | – |
| CC(Cc1ccccc1)NCCc1ccc(O)c(O)c1 [Compound D-279, dopamphetamine] | – | 342 ± 5.38 | 605.3 ± 46.7 | fold increase in binding affinity compared to (d)-amphetamine ([1]; [3H]CFT binding, WT hDAT): 2 fold |
| Oc1ccc(CCNCCCCCNCCc2ccc(O)c(O)c2)cc1O [Compound D-347] | 51 | 83.3 ± 8.74 | 171.5 ± 1.60 | – |
| CC(CCc1ccc(O)cc1)NCCc1ccc(O)c(O)c1 (stereo not drawn) [(dl)-dobutamine, dobutamine, reference compound] | 21 | – | 329.4 ± 16.5 | Ki ([1]; hDAT Binding Ki, WT): 196 ± 14.3 nM; Ki [4]: 237 ± 23.9 nM; Ki [5]: 257 ± 26.5 nM |
| Oc1ccc(CCNCCCCCCCCNCCc2ccc(O)c(O)c2)cc1O [Compound D-362] | 82 | 51.9 | 105.7 ± 2.98 | – |
| NCCc1ccccc1 [β-phenethylamine, reference compound] | – | 3261 ± 21.5 | 1103 ± 206 | – |
| CC(CCc1ccc(O)c(O)c1)NCCc1ccc(O)c(O)c1 [Compound D-278, hydroxydobutamine] | 74 | 58 ± 2.9 | 187.5 ± 30.2 | fold increase in affinity compared to dobutamine ([1]; [3H]CFT binding, WT hDAT): 4 fold; Ki ([1]; read-out: hDAT Binding Ki, WT, listed as hydroxydobutamine): ~58 nM |
| Oc1ccc(CCNCCCCCCNCCc2ccccc2)cc1O [dopexamine, reference compound] | – | – | 187.5 ± 19.2 | Ki ([1]; hDAT Binding Ki, WT): 96.9 ± 13.7 nM; Ki [4]: 147 ± 5.09 nM; Ki [5]: 192 ± 20.6 nM |
| C[C@H](N)Cc1ccccc1 [(d)-amphetamine, reference compound] | – | – | 163.5 ± 4.57 | – |
| COC(=O)[C@H]1[C@@H](OC(=O)c2ccccc2)C[C@@H]2CC[C@H]1N2C [cocaine] | – | – | – | Uptake Kapp, WT [3]: 246.0 ± 25.0 ^b nM |
| Oc1ccc(CCNCCCNCCc2ccc(O)c(O)c2)cc1O [Compound D-307] | 5 | 875 ± 71.4 | 1691 ± 197 | – |
